From patent US6017933A, “Mannich bases of conjugated styryl ketones” (University of Saskatchewan Technologies Inc., priority 1999, dated 2000)
Values after ≈ are worked out from the molar mass of the structure shown. “Also recorded” adds a separate entry of the source. Read-outs that look alike come from different tables or passages of the source.

What was measured:
L1210 cells = experiment: Cytotoxicity, murine L1210 leukemic cells; format: cell-based; conditions: Mus musculus, mean
human tumors [1] = test system: human tumors
CEM cells = experiment: Cytotoxicity, CEM human T-lymphocytes; conditions: for IC50: Homo sapiens, CCRF-CEM, read-out: CEM cells IC50; for TIL1210 (CEM cells): IC50 T-lymphocytes (CEM)/IC50 L1210; for TIP388 (CEM cells): IC50 T-lymphocytes (CEM)/IC50 P388; for TIht (CEM cells): IC50 T-lymphocytes (CEM)/IC50 human tumors
Molt 4/C8 cells = experiment: Cytotoxicity, Molt 4/C8 human T-lymphocytes; conditions: for TIL1210 (Molt 4/C8 cells): IC50 T-lymphocytes (Molt 4/C8)/IC50 L1210; for TIP388 (Molt 4/C8 cells): IC50 T-lymphocytes (Molt 4/C8)/IC50 P388; for TIht (Molt 4/C8 cells): IC50 T-lymphocytes (Molt 4/C8)/IC50 human tumors; for IC50: read-out: Molt 4/C8 cells IC50
P388 cells = experiment: Cytotoxicity, murine P388 leukemic cells (P388 D1); conditions: for IC50: read-out: P388 cells IC50
human tumors [2] = experiment: Cytotoxicity, human tumor cell line panel (approximately 55 lines); conditions: for IC50: read-out: human tumors IC50, mean graph midpoint, approximately 55 cell lines, hydrobromide salts used for 4a, 11a-e
[3] = test system: Aspergillus fumigatus conidia; experiment: Kill-curve experiment, Aspergillus fumigatus conidia; format: cell-based; conditions: Aspergillus fumigatus; 5 μm AMB or 5 μm ITZ, within 24 hr
Method: Kill-Curve Experiment: 5 ml conidial suspension each of the AMB-, and ITZ-susceptible (W73355) and the resistant (AB16.4 and ITZ70) isolates prepared in PYG broth (1×10^6 conidia/ml) was incubated at 35° C. in the presence of 5 μm of AMB or 5 μm ITZ or 50 μm Compound 9b. At various time intervals, 0.1 ml aliquots of the conidial suspension were removed, diluted appropriately to obtain 10^2 to 10^4 fold dilution, and 0.1 ml aliquots were spread in duplicate on PYG agar plates. […] Identical treatment of the conidial suspension in the absence of the drug was used as the growth control.

Aspergillus fumigatus [4] = experiment: Murine pulmonary aspergillosis model; format: in vivo, Aspergillus fumigatus in DBA/2J female mice; conditions: 2 mg/kg/day
Method: In vivo susceptibility studies: DBA/2J female mice (Jackson Laboratories) weighing 20-23 grams (≈6 weeks old) were used. The mice were immunosuppressed by 3 consecutive subcutaneous injections (0.5 ml each) of cortisone acetate (250 mg/kg; Sigma Chemical Company) in sterile distilled water containing 0.1% Tween 80. The immunosuppressed mice were anesthetized by exposing to ether in a desiccator for 45±5 seconds and infected with 20 μl inoculum containing 1×10^6 conidia delivered to the nares of the animals as a single droplet from a micropipet. Compound 9b and AMB were dissolved in dimethyl sulfoxide (DMSO) and administered 24 hr post infection by intraperitoneal injection in 0.2 ml PBS per dose. […] The efficacy of chemotherapy was assessed by determining percent survival and the fungal load (CFU/lungs) of infected animals as determined by semiquantitative organ culture.

Candida albicans = conditions: C. albicans; cited from earlier work
Aspergillus fumigatus [5] = experiment: MIC and MLC, Aspergillus fumigatus, broth macrodilution; conditions: Aspergillus fumigatus, 48 h
[6] = test system: AMB-resistant Aspergillus fumigatus; experiment: MIC and MLC, AMB-resistant Aspergillus fumigatus, broth macrodilution; conditions: 48 h
[7] = test system: ITZ-resistant Aspergillus fumigatus; experiment: MIC and MLC, ITZ-resistant Aspergillus fumigatus, broth macrodilution; conditions: 48 h
COLO 205 [8] = conditions: in vivo; cited from earlier work
SW-620 = conditions: in vivo; cited from earlier work
NCI-H522 = conditions: in vivo; cited from earlier work
LOX IMVI = conditions: in vivo; cited from earlier work
CAKI-1 [9] = conditions: in vivo; cited from earlier work
[10] = test system: P388 lymphocytic leukemia; conditions: 20 mg/kg intraperitoneally for five days; cited from earlier work
human Jurkat T cells [11] = experiment: Growth inhibition of Jurkat T cells, trypan blue exclusion test; format: cell-based; conditions: 48 h, read-out: growth of Jurkat T cells inhibited by 50% (IC50)
Method: All cell cultures used were maintained in RPMI 1640 medium, pH 7.4 supplanted with 10% fetal bovine serum and 50 μg/ml of gentamycin in 25 ml culture flasks at 37° C. in a humidified gas mixture of 5% carbon dioxide balanced with air and were passaged three times a week.
Cell viability was determined by the trypan blue exclusion test according to a literature procedure (Duke and Cohen, 1992). […] A flask containing ~10^6 cells/ml and 8 or […] of DMSO was used as the control. […] After 48 hours, cells were counted using a haemocytometer. The percentage of growth inhibition was calculated as follows: (C-T/C)×100 where C is the mean cell number in the control and T is the mean cell number in each treatment. […] All experiments were performed in triplicate.

human Jurkat T cells [12] = experiment: DNA fragmentation by agarose gel electrophoresis; format: cell-based; conditions: Compound 9d 6 and 10 μM; melphalan 10 μM
human Jurkat T cells [13] = experiment: Apoptosis, fluorescence microscopy with acridine orange and ethidium bromide
[14] = test system: P388 lymphocytic leukemia; experiment: Murine P388 lymphocytic leukemia in vivo screen
Method: In order to evaluate whether these promising results could be translated into in vivo activity, two representative compounds 9d and 10a were chosen. […] These two compounds were examined in the murine P388 screen and against certain human tumors in athymic mice.
(§1) The compounds were examined by the Developmental Therapeutics Program, National Cancer Institute, U.S.A. The murine P388 lymphocytic leukemia assay was conducted by a reported known method and the maximum ILS figures for 9d and 10a were 5 and 20% respectively using doses of 54 and 6.7 mg/kg respectively. An increase of 20% or more in the life spans is considered to be statistically significant. A reference drug 5-fluorouracil has an ILS of >35 using a dose of 20 mg/kg when given intraperitoneally for five days. Passage of human tumors in athymic mice was undertaken by a known method. No definitions of activity are available but as a general rule compounds causing a 60% reduction in tumor weights in one of these screens would be evaluated further.

COLO 205 [15] = experiment: COLO 205 human colon tumor xenograft in athymic mice; format: in vivo; conditions: COLO 205; 16.8 mg/kg
Method: as §1

KM12 = KM12 human colon tumor xenograft in athymic mice; format: in vivo
Method: as §1

CAKI-1 [16] = experiment: CAKI-1 human renal tumor xenograft in athymic mice; format: in vivo; conditions: 16.8 mg/kg
Method: as §1

Structure (SMILES) | IC50 (L1210 cells) | IC50 (CEM cells) | TIL1210 (CEM cells) (CEM cells) | TIP388 (CEM cells) (CEM cells) | TIht (CEM cells) (CEM cells) | TIL1210 (Molt 4/C8 cells) (Molt 4/C8 cells) | TIP388 (Molt 4/C8 cells) (Molt 4/C8 cells) | TIht (Molt 4/C8 cells) (Molt 4/C8 cells) | IC50 (Molt 4/C8 cells) | IC50 (P388 cells) | IC50 (human tumors [2]) | other results
CC[N+]1(C)CCC(O)(/C=C/c2ccc(Cl)c(Cl)c2)C(C(=O)/C=C/c2ccc(Cl)c(Cl)c2)C1 (stereo not drawn) [Compound 10c] | 21.4 µM | 16.5 µM | 0.77 | 25.78 | 7.53 | 1.12 | 37.56 | 10.98 | 24 µM | 0.64 µM | 2.19 µM | activity relative to compound 12c, human tumors (human tumors [1]): 4.36 times
C[C@@H]1[C@H](O)[C@@H](C)/C=C/C=C/C=C/C=C/C=C/C=C/C=C/[C@H](O[C@@H]2O[C@H](C)[C@@H](O)[C@H](N)[C@@H]2O)C[C@@H]2O[C@](O)(C[C@@H](O)C[C@@H](O)[C@H](O)CC[C@@H](O)C[C@@H](O)CC(=O)O[C@H]1C)C[C@H](O)[C@H]2C(=O)O [Amphotericin B] | – | – | – | – | – | – | – | – | – | – | – | killing at 5 µM [3]: ≥ 99%; reduction of CFU/lung (Aspergillus fumigatus [4]): ≈ 66%; mean MIC (Candida albicans): ~0.6 μm; MIC (Aspergillus fumigatus [5]; read-out: MIC Mean ± SD): 1.32 ± 0.63 µM (≈ 1.22 µg/mL); MIC (Aspergillus fumigatus [5]; read-out: MIC Range): 0.55 to 2.22 µM (≈ 0.508 to 2.05 µg/mL); MIC ([6]; read-out: MIC Mean ± SD): 6.64 ± 3.47 µM (≈ 6.14 µg/mL); MIC ([6]; read-out: MIC Range): 4.42 to 17.7 µM (≈ 4.08 to 16.4 µg/mL); MIC ([7]; read-out: MIC Mean ± SD): 0.7 ± 0.39 µM (≈ 0.647 µg/mL); MIC ([7]; read-out: MIC Range): 0.27 to 1.11 µM (≈ 0.25 to 1.03 µg/mL)
O=P1(N(CCCl)CCCl)NCCCO1 (stereo not drawn) [cyclophosphamide] | – | – | – | – | – | – | – | – | – | – | – | activity towards COLO 205 xenograft (COLO 205 [8]): inactive; activity towards SW-620 xenograft (SW-620): inactive; activity towards NCI-H522 xenograft (NCI-H522): inactive; reduction of growth of LOX IMVI tumor (LOX IMVI): 100-150%; reduction of growth of CAKI-1 tumor (CAKI-1 [9]): 60-100%
CCC(C)n1ncn(-c2ccc(N3CCN(c4ccc(OCC5COC(Cn6cncn6)(c6ccc(Cl)cc6Cl)O5)cc4)CC3)cc2)c1=O (stereo not drawn) [Itraconazole] | – | – | – | – | – | – | – | – | – | – | – | killing at 5 µM [3]: 85%; MIC (Aspergillus fumigatus [5]; read-out: MIC Mean ± SD): 0.53 ± 0.16 µM (≈ 0.374 µg/mL); MIC (Aspergillus fumigatus [5]; read-out: MIC Range): 0.18 to 0.72 µM (≈ 0.127 to 0.508 µg/mL); MIC ([6]; read-out: MIC Mean ± SD): 0.82 ± 0.35 µM (≈ 0.579 µg/mL); MIC ([6]; read-out: MIC Range): 0.32 to 1.29 µM (≈ 0.226 to 0.91 µg/mL); MIC ([7]; read-out: MIC Mean ± SD): 17.2 ± 5.83 µM (≈ 12.2 µg/mL); MIC ([7]; read-out: MIC Range): 5.19 to 20.8 µM (≈ 3.66 to 14.7 µg/mL)
O=c1[nH]cc(F)c(=O)[nH]1 [5-fluorouracil] | – | – | – | – | – | – | – | – | – | – | – | ILS, murine P388 (reference drug) [10]: > 35
N[C@@H](Cc1ccc(N(CCCl)CCCl)cc1)C(=O)O [melphalan, reference compound] | – | – | 1.16 | 11.23 | 0.09 | – | – | – | – | – | 26.3 µM | IC50 (human Jurkat T cells [11]): 1.16 µM; DNA ladder / DNA fragmentation (human Jurkat T cells [12]): A faint DNA ladder could be seen; time after which apoptotic effects were detectable (human Jurkat T cells [13]): 3 h; percentage of apoptotic cells (human Jurkat T cells [13]; 10 μM, 17 hours, control 4.4%): 24%; death of treated cells (human Jurkat T cells [13]; 48 hours): all the treated cells had died
CC[N+]1(C)CCC(O)(/C=C/c2ccccc2)C(C(=O)/C=C/c2ccccc2)C1 (stereo not drawn) [Compound 10a] | – | – | – | – | – | – | – | – | – | 2.27 µM | 8.31 µM | maximum ILS / increase in life span, murine P388 ([14]; 6.7 mg/kg): 20%; activity in the murine P388 screen ([14]; in words): marginal potency; % ILS (COLO 205 [15]): 14%; percent reduction in median tumor weight (COLO 205 [15]): 20%; % T/C (KM12; 16.8 mg/kg): 45%; % ILS (KM12; 25 mg/kg): 5%; % ILS (CAKI-1 [16]): 6%; % T/C (CAKI-1 [16]): 43%; Selective toxicity towards leukemia (human tumors [2]; human tumor screen): Selective toxicity towards leukemia was observed; also recorded: preferential cytotoxicity to colon and leukemic cells respectively
OC(Cn1cncn1)(Cn1cncn1)c1ccc(F)cc1F [fluconazole] | – | – | – | – | – | – | – | – | – | – | – | mean MIC (Candida albicans): approximately 0.8 μm
CCN1CCC(O)(c2ccc(O)cc2)C(C(=O)c2ccc(O)cc2)C1 (stereo not drawn) [Compound 11f] | 9.75 µM | 42.6 µM | 4.37 | 30.46 | 2.04 | 4.32 | 30.09 | 2.02 | 42.1 µM | 1.4 µM | 20.9 µM | –
CCN(CC)CCC(=O)/C=C/c1ccc(Cl)c(Cl)c1 [Compound 1c] | 61.2 µM | 55.8 µM | 0.91 | 143.2 | 14.70 | 0.74 | 116.5 | 11.96 | 45.4 µM | 0.39 µM | 3.8 µM | potency relative to melphalan, P388 (P388 cells): more than half the potency of melphalan
